This passage reports IC50 results from US9580416B2, “Inhibitors of Bruton's tyrosine kinase” (PHARMACYCLICS LLC, priority 2014, dated 2017).

The term IC50 denotes the concentration needed to halve the response being measured.

SMILES strings stand for the structures.

What all share (format): biochemical
The target of one experiment is Btk (Homo sapiens, UniProt Q06187). Briefly: Btk kinase activity, TR-FRET assay. Conditions: read-out: Btk (IC50). Summed up: (§1)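 Enzyme (Btk 0.5 nM; Lck 6 nM) reacted 1 h with inhibitor, ATP at Km and biotin-peptide substrate in pH 7.4 buffer, 10% DMSO. Phosphopeptide detected by Eu-p-Tyr100 antibody plus streptavidin-APC (665/615 nm). IC50 calculated from fitted Ki(app) via ATP/Km correction plus half total enzyme.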
Btk, sequence (Q06187 whole entry): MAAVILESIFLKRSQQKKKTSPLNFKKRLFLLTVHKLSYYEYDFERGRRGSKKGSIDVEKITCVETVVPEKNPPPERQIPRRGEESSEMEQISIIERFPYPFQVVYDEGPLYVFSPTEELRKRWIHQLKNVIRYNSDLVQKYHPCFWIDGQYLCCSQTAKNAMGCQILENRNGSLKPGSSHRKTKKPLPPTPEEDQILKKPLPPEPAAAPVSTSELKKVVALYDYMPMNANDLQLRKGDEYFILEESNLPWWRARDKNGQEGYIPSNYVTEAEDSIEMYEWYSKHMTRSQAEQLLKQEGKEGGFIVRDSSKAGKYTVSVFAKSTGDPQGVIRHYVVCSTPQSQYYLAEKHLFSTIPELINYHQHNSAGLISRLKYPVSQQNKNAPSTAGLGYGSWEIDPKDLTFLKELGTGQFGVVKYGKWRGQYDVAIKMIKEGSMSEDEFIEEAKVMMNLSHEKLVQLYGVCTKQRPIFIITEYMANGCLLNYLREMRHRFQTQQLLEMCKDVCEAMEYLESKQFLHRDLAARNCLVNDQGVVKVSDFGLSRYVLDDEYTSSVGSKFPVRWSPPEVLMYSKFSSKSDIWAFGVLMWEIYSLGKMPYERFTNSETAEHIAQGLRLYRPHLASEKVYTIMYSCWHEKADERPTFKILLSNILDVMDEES
A general note: Time-resolved FRET reads energy transfer from a long-lived donor to a nearby acceptor.

The target in another experiment is Lck (Homo sapiens, UniProt P06239). Briefly: Lck kinase activity, TR-FRET assay. Conditions: read-out: LCK (IC50). Summed up:
as §1

The target in a further experiment is EGFR (Homo sapiens, UniProt P00533). Put plainly: Inhibition of a panel of kinases, in vitro HotSpot kinase assay: EGFR. On the procedure: The degree of inhibition of a panel of kinases is determined using the in vitro HotSpot kinase assay (purified enzymes, ^33P-ATP, an appropriate substrate and 1 uM ATP).
EGFR, sequence (P00533 25-1210): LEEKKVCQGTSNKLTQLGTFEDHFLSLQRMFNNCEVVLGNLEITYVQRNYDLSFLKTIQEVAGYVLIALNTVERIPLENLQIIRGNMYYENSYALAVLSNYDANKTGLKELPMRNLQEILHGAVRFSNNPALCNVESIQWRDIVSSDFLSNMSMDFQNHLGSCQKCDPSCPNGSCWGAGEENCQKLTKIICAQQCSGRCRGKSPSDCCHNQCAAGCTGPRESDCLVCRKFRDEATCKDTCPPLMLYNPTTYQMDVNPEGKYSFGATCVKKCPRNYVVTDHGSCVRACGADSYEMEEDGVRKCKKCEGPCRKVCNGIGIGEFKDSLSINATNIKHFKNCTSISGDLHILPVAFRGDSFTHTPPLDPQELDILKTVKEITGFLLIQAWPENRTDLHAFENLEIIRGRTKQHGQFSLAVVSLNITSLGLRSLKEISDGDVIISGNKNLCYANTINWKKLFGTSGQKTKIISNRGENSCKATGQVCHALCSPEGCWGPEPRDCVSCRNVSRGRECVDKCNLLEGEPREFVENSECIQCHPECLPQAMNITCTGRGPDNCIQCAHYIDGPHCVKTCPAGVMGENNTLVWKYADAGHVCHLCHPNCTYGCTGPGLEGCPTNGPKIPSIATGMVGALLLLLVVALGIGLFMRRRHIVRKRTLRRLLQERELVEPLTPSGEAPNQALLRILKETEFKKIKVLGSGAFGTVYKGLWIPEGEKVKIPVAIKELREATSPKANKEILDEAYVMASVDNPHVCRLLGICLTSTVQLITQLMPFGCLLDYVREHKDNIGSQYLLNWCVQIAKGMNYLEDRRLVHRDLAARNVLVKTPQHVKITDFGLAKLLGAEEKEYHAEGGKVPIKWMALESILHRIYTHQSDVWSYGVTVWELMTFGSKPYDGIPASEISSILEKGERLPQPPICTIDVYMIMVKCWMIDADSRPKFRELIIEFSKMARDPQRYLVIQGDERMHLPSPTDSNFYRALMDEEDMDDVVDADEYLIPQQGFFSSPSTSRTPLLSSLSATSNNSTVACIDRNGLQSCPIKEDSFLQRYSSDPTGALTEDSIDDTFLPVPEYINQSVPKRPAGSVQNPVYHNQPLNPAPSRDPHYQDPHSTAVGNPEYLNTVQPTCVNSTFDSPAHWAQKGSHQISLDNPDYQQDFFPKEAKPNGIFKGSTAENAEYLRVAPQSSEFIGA

Lck, sequence (P06239 whole entry, species assumed): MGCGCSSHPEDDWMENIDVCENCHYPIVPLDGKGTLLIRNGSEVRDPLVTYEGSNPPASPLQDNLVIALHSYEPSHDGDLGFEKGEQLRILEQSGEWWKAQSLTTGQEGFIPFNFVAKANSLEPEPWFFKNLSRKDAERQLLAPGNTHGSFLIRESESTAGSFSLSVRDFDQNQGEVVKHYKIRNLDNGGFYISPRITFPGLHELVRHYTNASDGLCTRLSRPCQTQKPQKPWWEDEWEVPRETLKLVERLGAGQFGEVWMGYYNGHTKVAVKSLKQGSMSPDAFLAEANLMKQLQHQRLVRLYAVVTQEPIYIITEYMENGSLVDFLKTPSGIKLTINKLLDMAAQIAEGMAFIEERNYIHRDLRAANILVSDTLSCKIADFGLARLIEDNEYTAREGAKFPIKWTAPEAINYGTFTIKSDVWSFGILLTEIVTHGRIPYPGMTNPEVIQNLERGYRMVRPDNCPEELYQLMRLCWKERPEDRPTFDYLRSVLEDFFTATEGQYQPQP

With `CN(C/C=C/C(=O)N1CC[C@@H](Nc2n[nH]c3nccc(Oc4ccc(C(=O)Nc5ncccn5)cc4)c23)C1)C1CC1` [compound 63], the 50% inhibitory concentration (IC50) at Btk is 100 to 1000 nM; on Lck it was over 10000 nM; at EGFR it was over 10000 nM.

Regarding `CCC(=O)N1CC[C@@H](Nc2n[nH]c3nccc(Oc4ccc(C(=O)Nc5cc(C(F)(F)F)ccn5)cc4)c23)C1` [compound 66], the results for the IC50 at Btk, at Lck and against EGFR were under 100 nM, 100 to 1000 nM and 1000 to 10000 nM, respectively.

Regarding `N#Cc1cc(Nc2n[nH]c3nccc(Oc4ccc(Oc5ccccc5)cc4)c23)ccn1` [compound 30, 4-{[4-(4-phenoxyphenoxy)-1H-pyrazolo[3,4-b]pyridin-3-yl]amino}pyridine-2-carbonitrile], the results for the half-maximal inhibitory concentration (IC50) on Btk, on Lck and against EGFR were 1000 to 10000 nM, 100 to 1000 nM and 100 to 1000 nM, respectively.

On to `CCCc1ccnc(NC(=O)c2ccc(Oc3ccnc4[nH]nc(N[C@@H]5CCN(C(=O)/C=C/CN(C)C6CC6)C5)c34)cc2)c1` [compound 56], for which the IC50 on Btk was under 100 nM; at Lck, 100 to 1000 nM; at EGFR it was 1000 to 10000 nM.

For the compound `CNC(=O)/C(C#N)=C\c1cccc(Nc2n[nH]c3nccc(Oc4ccc(Oc5ccccc5)cc4)c23)c1` [compound 29, (2Z)-2-cyano-N-methyl-3-(3-{[4-(4-phenoxyphenoxy)-1H-pyrazolo[3,4-b]pyridin-3-yl]amino}phenyl)prop-2-enamide], the 50% inhibitory concentration (IC50) was under 100 nM at Btk, 100 to 1000 nM on Lck and under 100 nM on EGFR.

On to `CCOC(=O)N1CCC[C@@H](Nc2n[nH]c3nccc(Oc4ccc(C(=O)Nc5cc(C#N)ccn5)cc4)c23)C1` [compound 78, ethyl (3R)-3-[(4-{4-[(4-cyanopyridin-2-yl)carbamoyl]phenoxy}-1H-pyrazolo[3,4-b]pyridin-3-yl)amino]piperidine-1-carboxylate], for which the IC50 on Btk is under 100 nM; at Lck, 100 to 1000 nM; at EGFR, 1000 to 10000 nM.

Consider `CCC(=O)N1CC[C@@H](Nc2n[nH]c3nccc(Oc4ccc(C(=O)Nc5ncc(C)s5)cc4)c23)C1` [compound 190], for which the half-maximal inhibitory concentration (IC50) is under 100 nM on Btk, 1000 to 10000 nM at Lck and 1000 to 10000 nM against EGFR.

Turning to `CCC(=O)N1CC[C@@H](Nc2n[nH]c3nccc(Oc4ccc(C(=O)Nc5nccn5C)cc4)c23)C1` [compound 73, N-(1-methyl-1H-imidazol-2-yl)-4-[(3-{[(3R)-1-propanoylpyrrolidin-3-yl]amino}-1H-pyrazolo[3,4-b]pyridin-4-yl)oxy]benzamide], the IC50 at Btk, at Lck and at EGFR was over 10000 nM in each case.

For `CN(C/C=C/C(=O)N1CC[C@@H](Nc2n[nH]c3nccc(Oc4ccc(OCc5cnn[nH]5)cc4)c23)C1)C1CC1` [compound 40], the IC50 at Btk is under 100 nM; at Lck, 100 to 1000 nM; against EGFR, under 100 nM.

`N#C/C(=C\c1ccccc1)C(=O)N1CC[C@@H](Nc2n[nH]c3nccc(Oc4ccc(Oc5ccccc5)cc4)c23)C1` [compound 19, (2E)-2-[(E)-(3R)-3-{[4-(4-phenoxyphenoxy)-1H-pyrazolo[3,4-b]pyridin-3-yl]amino}pyrrolidine-1-carbonyl]-3-phenylprop-2-enenitrile]: the IC50 was under 100 nM on Btk, 100 to 1000 nM on Lck and 100 to 1000 nM against EGFR.

For `COCCC(=O)N1CCC[C@@H](Nc2n[nH]c3nccc(Oc4ccc(C(=O)Nc5cc(C#N)ccn5)cc4)c23)C1` [compound 80, N-(4-cyanopyridin-2-yl)-4-[(3-{[(3R)-1-(3-methoxypropanoyl)piperidin-3-yl]amino}-1H-pyrazolo[3,4-b]pyridin-4-yl)oxy]benzamide], the IC50 at Btk is under 100 nM; at Lck it was 100 to 1000 nM; at EGFR, under 100 nM.

On to `CN(C/C=C/C(=O)N1CCCC[C@H]1CNc1n[nH]c2nccc(Oc3ccc(Oc4ccccc4)cc3)c12)C1CC1` [compound 37], for which the IC50 was under 100 nM at Btk, 100 to 1000 nM at Lck and 1000 to 10000 nM against EGFR.

As for `N#C/C(=C\C1CCC1)C(=O)N1CC[C@@H](Nc2n[nH]c3nccc(Oc4ccc(Oc5ccccc5)cc4)c23)C1` [compound 27, (2E)-3-cyclobutyl-2-[(E)-(3R)-3-{[4-(4-phenoxyphenoxy)-1H-pyrazolo[3,4-b]pyridin-3-yl]amino}pyrrolidine-1-carbonyl]prop-2-enenitrile], the IC50 is under 100 nM on Btk, 100 to 1000 nM on Lck and 100 to 1000 nM on EGFR.

In the case of `CN(C/C=C/C(=O)N1CC[C@@H](Nc2n[nH]c3nccc(Oc4ccc(C(=O)Nc5ncc[nH]5)cc4)c23)C1)C1CC1` [compound 67], the IC50 on Btk was 100 to 1000 nM; at Lck it was over 10000 nM; against EGFR it was over 10000 nM.

`Cc1ccnc(NC(=O)c2ccc(Oc3ccnc4[nH]nc(N[C@@H]5CCCN(C(=O)C6(C)CCOC6)C5)c34)cc2)c1` (stereo partly drawn) [compound 89, 4-[(3-{[(3R)-1-(3-methyloxolane-3-carbonyl)piperidin-3-yl]amino}-1H-pyrazolo[3,4-b]pyridin-4-yl)oxy]-N-(4-methylpyridin-2-yl)benzamide]: the IC50 at Btk is under 100 nM; at Lck it was 1000 to 10000 nM; at EGFR it was over 10000 nM.

`CCNC(=O)N1CCCC(c2n[nH]c3nccc(Oc4ccc(C(=O)Nc5ncc(C)s5)cc4)c23)C1` (stereo not drawn) [compound 195, N-ethyl-3-(4-{4-[(5-methyl-1,3-thiazol-2-yl)carbamoyl]phenoxy}-1H-pyrazolo[3,4-b]pyridin-3-yl)piperidine-1-carboxamide]: the half-maximal inhibitory concentration (IC50) on Btk lay within 100 to 1000 nM; at Lck, 1000 to 10000 nM; at EGFR it was 1000 to 10000 nM.

As for `CN(C)C/C=C/C(=O)N1CC[C@@H](Nc2n[nH]c3nccc(Oc4ccc(Cl)cc4)c23)C1` [compound 3, (2E)-1-[(3R)-{[4-(4-chlorophenoxy)-1H-pyrazolo[3,4-b]pyridin-3-yl]amino}pyrrolidin-1-yl]-4-(dimethylamino)but-2-en-1-one], the IC50 was under 100 nM on Btk, over 10000 nM at Lck and 100 to 1000 nM against EGFR.

Take `N#Cc1ccnc(NC(=O)c2ccc(Oc3ccnc4[nH]nc(NC5CCOCC5)c34)cc2)c1` [compound 77, N-(4-cyanopyridin-2-yl)-4-({3-[(oxan-4-yl)amino]-1H-pyrazolo[3,4-b]pyridin-4-yl}oxy)benzamide]: the IC50 on Btk was under 100 nM; at Lck it was 100 to 1000 nM; on EGFR it was 1000 to 10000 nM.

`CCC(=O)N1CC[C@@H](Nc2n[nH]c3nccc(Oc4ccc(C(=O)Nc5nnc(C)[nH]5)cc4)c23)C1` [compound 75, N-(5-methyl-4H-1,2,4-triazol-3-yl)-4-[(3-{[(3R)-1-propanoylpyrrolidin-3-yl]amino}-1H-pyrazolo[3,4-b]pyridin-4-yl)oxy]benzamide]: the IC50 at Btk, at Lck and at EGFR was over 10000 nM each time.

With `c1ccc(Oc2ccc(Oc3ccnc4[nH]nc(NC5CCOCC5)c34)cc2)cc1` [compound 47], the IC50 on Btk, at Lck and at EGFR was under 100 nM each time.

`CO[C@H]1CC[C@@H](Nc2n[nH]c3nccc(Oc4ccc(C(=O)Nc5cc(C#N)ccn5)cc4)c23)CC1` [compound 85, N-(4-cyanopyridin-2-yl)-4-[(3-{[(1S,4S)-4-methoxycyclohexyl]amino}-1H-pyrazolo[3,4-b]pyridin-4-yl)oxy]benzamide]: the IC50 at Btk is under 100 nM; on Lck it was 100 to 1000 nM; against EGFR it was 100 to 1000 nM.

`CN(C)C/C=C/C(=O)N1CC[C@@H](Nc2n[nH]c3nccc(Oc4ccc(Oc5ccccc5)cc4S(N)(=O)=O)c23)C1` [compound 25, 2-[(3-{[(3R)-1-[(2E)-4-(dimethylamino)but-2-enoyl]pyrrolidin-3-yl]amino}-1H-pyrazolo[3,4-b]pyridin-4-yl)oxy]-5-phenoxybenzene-1-sulfonamide]: the 50% inhibitory concentration (IC50) on Btk, at Lck and against EGFR was 100 to 1000 nM each time.

Consider `CCC(=O)N1CC[C@@H](Nc2n[nH]c3nccc(Oc4ccc(C(=O)Nc5nc6ccccc6[nH]5)cc4)c23)C1` [compound 69], for which the results for the IC50 at Btk, at Lck and against EGFR were 100 to 1000 nM, 100 to 1000 nM and over 10000 nM, respectively.

For the compound `Cc1ccnc(NC(=O)c2ccc(Oc3ccnc4[nH]nc(N[C@@H]5CCCN(C(=O)C6CCN(C)CC6)C5)c34)cc2)c1` [compound 92, 4-[(3-{[(3R)-1-(1-methylpiperidine-4-carbonyl)piperidin-3-yl]amino}-1H-pyrazolo[3,4-b]pyridin-4-yl)oxy]-N-(4-methylpyridin-2-yl)benzamide], the IC50 on Btk was under 100 nM; at Lck it was 100 to 1000 nM; against EGFR, 1000 to 10000 nM.

As for `CN(C/C=C/C(=O)N1CC[C@@H](Nc2n[nH]c3nccc(Oc4ccc(C(=O)Nc5cc(C(F)(F)F)ccn5)cc4)c23)C1)C1CC1` [compound 33, 4-[(3-{[(3R)-1-[(2E)-4-[cyclopropyl(methyl)amino]but-2-enoyl]pyrrolidin-3-yl]amino}-1H-pyrazolo[3,4-b]pyridin-4-yl)oxy]-N-[4-(trifluoromethyl)pyridin-2-yl]benzamide], the figures for the concentration for half-maximal inhibition (IC50) on Btk, on Lck and against EGFR were under 100 nM, 100 to 1000 nM and 1000 to 10000 nM, respectively.

For the compound `CN(C/C=C/C(=O)N1CCC[C@H]1CNc1n[nH]c2nccc(Oc3ccc(Oc4ccccc4)cc3)c12)C1CC1` [compound 36], the half-maximal inhibitory concentration (IC50) on Btk was under 100 nM; on Lck it was under 100 nM; at EGFR, 1000 to 10000 nM.

With `CCC(=O)N1CCC[C@@H](Nc2n[nH]c3ncnc(Oc4ccc(Oc5ccccc5)cc4)c23)C1` [compound 51], the results for the IC50 at Btk, on Lck and at EGFR were 100 to 1000 nM, 100 to 1000 nM and under 100 nM, respectively.
